Holding throughout (type): in vivo, canine
The subject of one assay is IL-10. Briefly: Western blot of atrial tissue. As to conditions: 3 groups.
The test system of assay [1] is canines with heart failure produced by 4 weeks of rapid ventricular pacing. Put plainly: AF inducibility after PFD started once 4 weeks of rapid ventricular pacing ended (Example 7). As to conditions: two canines, pacemakers turned off at 4 weeks, then PFD for 3 weeks. The method, then:
AF inducibility was assessed by both the single-extrastimulus protocol (as above) and a burst pacing protocol which consisted of pacing at one LA site and one RA site. A total of 16 burst stimulations were carried out for each animal with each atrial site receiving 8 burst […] (4 for a duration of 6 seconds and 4 for 12 seconds) at a CL of 50 ms and a stimulus output of 0.5 V+twice diastolic threshold. AF was considered sustained if the induced episode lasted >[…] at which time the longest AF duration was taken as 3600 seconds and used for analysis. Two adult mongrel canines (weight 20 to 32 kgs) with heart failure produced by 4 weeks of rapid ventricular pacing as described above were evaluated for AF inducibility following PFD treatment. Briefly, pacemakers were turned off at 4 weeks and PFD started for 3 weeks. A follow-up study for AF inducibility after 3 weeks of PFD treatment was performed as described above.

In a further assay the test system is connexin 40 (Cx40). Briefly: Immunofluorescent distribution of gap junction protein in LA. As to conditions: CHF and CHF+PFD groups. As for the experimental part:
(§1) The distribution of gap junction proteins connexin 43 (Cx43) and connexin 40 (Cx40) in atrial tissue was also studied. Atrial specimens were incubated with mouse monoclonal antibody against Cx40 and rabbit polyclonal antibody against Cx43 (Dako) overnight at 4° C. Subsequently, incubation with FITC-labeled goat anti-rabbit (for Cx43) and Texas Red-labeled donkey anti-mouse (for Cx40) antibodies (Jackson ImmunoResearch Laboratories, West Grove, Pa.) was performed. The specimens were processed and analyzed with fluorescent microscopy.

The next assay concerns connexin 43 (Cx43). The description is as above. As to conditions: CHF and CHF+PFD groups. As for the experimental part:
as §1

In assay [2] the test system is canines with ventricular tachypacing (VTP)-induced congestive heart failure (CHF). Briefly: Open-chest electrophysiology and epicardial mapping (ERP, CV, conduction heterogeneity). The source says: Briefly, 15 adult mongrel canines (weight 20 to 32 kgs) were divided into 3 groups (n=5 in each group) as follows: Group 1: Normal; Group 2: CHF canines not treated with PFD (or CHF); and Group 3: CHF canines treated with PFD (or CHF+PFD). […] The CHF and CHF+PFD canines underwent placement of a permanent single-chamber pacemaker with the pacing lead positioned in the right ventricular apex followed by radiofrequency catheter ablation of the AV junction to create complete heart block. Canines in the CHF and CHF+PFD groups underwent 3 weeks of VTP at a rate of 220 bpm. Oral PFD (800 mg three times a day) (InterMune, Brisbane, Calif.) was started 2 days prior to the initiation of VTP and was given for the full duration of the pacing period. During the follow-up EP study, each animal was anesthetized with isoflurane and mechanically ventilated. The pacemaker rate was set at 80 bpm at twice diastolic threshold for the entire EP study. The chest was opened with a midline sternotomy. A pericardial cradle was created, and 4 custom-made, epicardial, high-density plaques (left atrial free wall (LAFW); left atrial Bachmann's bundle (LABB); right atrial free wall (RAFW); right atrial Bachmann's bundle (RABB)) were placed over the atria (512 electrodes with an inter-electrode distance of 2.5 mm), similar to the setup described in Verheule S, et al., Circulation 107:2615-22 (2003) and Sih H J, et al. J Am Coll Cardiol. 36:924-31 (2000). Unipolar electrode signals were acquired (sampling rate 2 kHz) and stored with the UnEmap mapping system (University of Auckland, New Zealand). Electrode pairs on the epicardial plaque were used for bipolar stimulation at twice diastolic threshold. Effective refractory periods (ERPs) were measured at 12 atrial sites (6 in LA, 6 in RA) using the single extrastimulus protocol (S1S2) at an 8-beat drive train basic cycle lengths (BCLs) of 200, 300, and 400 ms. During stimulation of the contralateral Bachmann's bundle, conduction velocity (CV) was calculated between pairs of plaque electrodes perpendicular to the activation wavefront with a custom-written software. Verheule S, et al., Am J Physiol Heart Circ Physiol. 2004; 287:H634-44; and Bayly P V, et al., IEEE Trans Biomed Eng. 1998; 45:563-71. Used as a marker of conduction heterogeneity (Verheule S, et al., Am J Physiol Heart Circ Physiol. 2004; 287:H634-44; Bayly P V, et al., IEEE Trans Biomed Eng. 1998; 45:563-71; and Ausma J, et al., Circulation. 1997; 96:3157-63), the phase difference (ms/mm) was defined as the average difference in activation time between a plaque electrode from all of its neighboring electrodes normalized by the inter-electrode distance. Frequency histograms were constructed for the phase differences within an atrial region. The histograms were summarized as the median phase (P50), and the 5th and 95th percentile phase, or P5 and P95 of the distribution, respectively. Two measures were derived to quantify conduction heterogeneity: 1) absolute conduction heterogeneity, defined as P95-P5 (P95-5), and 2) conduction heterogeneity index, defined as the absolute conduction heterogeneity normalized by the median phase, or P95-5/P50.

Assay [3] relates to total c-Jun N-terminal kinase (JNK). Briefly: Western blot of atrial tissue. The settings on record: CHF+PFD vs CHF. The method, then: (§2) Expression of MAPks in atrial tissue was evaluated using Western Blot analysis. Briefly, atrial tissue specimen containing an equal amount of total protein (10 μg) was electrophoresed on a 4-20% Tris-glycine gel and then transferred onto a nitrocellulose filter. Non-specific binding sites were blocked with 4% BSA, and the filter was incubated with diluted antibody and a matched secondary antibody (all antibodies were obtained from Chemicon, Temecular, Calif.). Protein bands were analyzed with an enhanced chemiluminescence detection method using horseradish peroxidase, based on the recommendations from the manufacturer (NEN Life Science, Boston, Mass.).

Assay [4] relates to total extracellular signal-regulated protein kinase (ERK). Briefly: Western blot of atrial tissue. The settings on record: CHF+PFD vs CHF. The method, then: as §2
The test system of a further assay is TNF-α. Briefly: Western blot of atrial tissue. As to conditions: 3 groups.
Another assay has as its system TGF-β1. Put plainly: Western blot of atrial tissue. The settings on record: CHF+PFD vs CHF.

The structures appear in SMILES notation. “Also recorded” adds a separate entry of the source.

In the case of `Cc1ccc(=O)n(-c2ccccc2)c1` [PFD, 5-methyl-1-phenyl-2-(1H)-pyridone], in the assay with IL-10, the “Expression of IL-10” value is on record as “unchanged; also recorded: not markedly different”. Moreover, the “AF inducibility after 3 weeks of PFD treatment” value in assay [1] was “AF was not found”. Moreover, the “Spatial distribution of Cx40 in LA, treated vs untreated” value in the assay with connexin 40 (Cx40) is recorded as “did not appear markedly different”. The “Spatial distribution of Cx43 in LA, treated vs untreated” value in the assay with connexin 43 (Cx43) is reported as “did not appear markedly different”. Further, the “LA CVs compared with the untreated group” value in assay [2] (3 pacing BCLs) is recorded as “non-statistically significant increase”. Moreover, in assay [2] (BCLs 200, 300, 400 ms, p=NS vs untreated, p<0.03 vs Normal), the “LA ERPs” value is recorded as “further lengthening”. In assay [2] (all BCLs, p<0.02 at 300 and 400 ms), the “Conduction heterogeneity index (P95-5/P50) in the LA” value was “reduction”. Moreover, the “Absolute conduction heterogeneity (P95-5) in the LA” value in assay [2] (all BCLs, p<0.04 at 400 ms) is given as “reduction”. Also, in assay [2] (p<0.003 at 400 ms), the “Absolute conduction heterogeneity (P95-5) in the RA” value is reported as “decrease” and the “Conduction heterogeneity index (P95-5/P50) in the RA” value is “decrease”. The “Local conduction heterogeneity in isochronal activation maps” value in assay [2] (pacing CL 300 ms, 4 atrial plaques) is recorded as “less”. For the same molecule, the “Expression of total JNK (c-Jun)” value in [3] is reported as “downregulation; also recorded: reduced”. Also, the “Expression of total ERK” value in assay [4] was “downregulation; also recorded: reduced”. For the same molecule, in the assay with TNF-α, the “Expression of TNF-α” value is listed as “unchanged; also recorded: not markedly different”. Besides, the “Expression of TGF-β1” value in the assay on TGF-β1 is listed as “downregulation; also recorded: reduced”.

(Values after patent publication US20120046321A1, “METHODS OF TREATING ATRIAL FIBRILLATION WITH P38 INHIBITOR COMPOUNDS” (INTERMUNE, INC., priority 2005, published 2012).)
